Patent US6034086A, “Trifluoromethylquinolinecarboxylic acid derivative” (priority 1994, dated 2000)
Converted amounts (≈) assume the structure as drawn. Read-outs that look alike come from different tables or passages of the source.

Key:
HIV [1] = assay: cellular disorder-suppressing activity (anti-HIV activity) in HIV-infected MT-4 cells, MTT, method of R. Pauwel et al.; format: cell-based; settings: for EC50: Human immunodeficiency virus 1, MT4, 120 h, HIV-infected MT-4 cells, 37° C., 5 days, 5% carbon dioxide, MTT, read-out: EC50 (50% cellular disorder-suppressing activity against the HIV-infected cells)
Method: That is, MT-4 cells were centrifuged (1000×g, 5 minutes), and a cell-floating solution in which the resulting cellular sediments were suspended in a RPMI-1640 medium containing no serum was inoculated with HIV. The mixture was cultured at 37° C. for 1 hour and then added to a RPMI-1640 medium to which 10% bovine fetal serum was added (hereinafter referred to as the serum medium), and the mixture was washed and centrifuged (1000×g, 5 minutes). The HIV-infected cells thus obtained and HIV-non-infected cells were suspended in the serum media in an amount of 4×10^5 /ml, respectively, and each 100 μl of the suspensions were apportioned to the respective wells of a multiwell with 96 wells for tissue culture. Each 100 μl of the compounds which had been previously diluted with the serum medium stepwisely were apportioned to these respective wells, and then the mixtures were left to stand and cultured at 37° C. for 5 days in the presence of 5% carbon dioxide. In the same manner, the HIV-infected cells and the HIV-non-infected cells to which the compound was not added were cultured. […] It was confirmed that no mycoplasma was contained in the cell solution and the virus-inoculated solution.
The cellular disorder-suppressing activity against the HIV-non-infected cells to which the compound was not added was defined as 100%, and the cellular disorder-suppressing activity against the HIV-infected cells to which the compound was not added was defined as 0%.

HIV [2] = settings: AIDS 4, 1283 (1990) for DR-3355; WO 90/13542 for the others; cited from earlier work
[3] = method of R. Pauwel et al., statement in background section

EC50 (HIV [1]) | Compound | cellular disorder-suppressing activity to HIV-infected cells (anti-HIV activity), in words (HIV [1]) | anti-HIV activity reported in literature, in words (HIV [2]) | cellular disorder-suppressing activity to HIV-infected cells (anti-HIV activity), in words (HIV [1]; [3])
– | O=C(O)c1cn(C2CC2)c2cc(N3CCNCC3)c(F)cc2c1=O [Ciprofloxacin] | no anti-HIV activity was also recognized | anti-HIV activities | –
– | C[C@H]1COc2c(N3CCN(C)CC3)c(F)cc3c(=O)c(C(=O)O)cn1c23 [DR-3355] | – | anti-HIV activity | no anti-HIV activity was recognized
– | CN1CCN(c2cc3c(cc2F)c(=O)c(C(=O)O)cn3-c2ccc(F)cc2)CC1 [Difloxacin] | – | anti-HIV activities | no anti-HIV activity was also recognized
– | CCn1cc(C(=O)O)c(=O)c2cc(F)c(N3CCNCC3)nc21 [Enoxacin] | – | anti-HIV activities | no anti-HIV activity was also recognized
0.02 µg/mL (≈ 0.042 µM) | O=C(O)c1cn(C2CC2)c2c(C(F)(F)F)c(N3CCN(c4ccccn4)CC3)c(F)cc2c1=O [Example 2, 1-cyclopropyl-6-fluoro-8-trifluoromethyl-1,4-dihydro-4-oxo-7-[4-(2-pyridyl)piperazin-1-yl]quinoline-3-carboxylic acid] | – | – | –
0.02 µg/mL (≈ 0.0443 µM) | Cn1cc(C(=O)O)c(=O)c2cc(F)c(N3CCN(c4ncccn4)CC3)c(C(F)(F)F)c21 [Example 8, 6-fluoro-8-trifluoromethyl-1,4-dihydro-4-oxo-1-methyl-7-[4-(2-pyrimidinyl)piperazin-1-yl]quinoline-3-carboxylic acid] | – | – | –
0.005 µg/mL (≈ 0.0111 µM) | Cn1cc(C(=O)O)c(=O)c2cc(F)c(N3CCN(c4ccccn4)CC3)c(C(F)(F)F)c21 [Example 9, 6-fluoro-8-trifluoromethyl-1,4-dihydro-4-oxo-1-methyl-7-[4-(2-pyridyl)piperazin-1-yl]quinoline-3-carboxylic acid] | – | – | –
0.01 µg/mL (≈ 0.0215 µM) | CCn1cc(C(=O)O)c(=O)c2cc(F)c(N3CCN(c4ccccn4)CC3)c(C(F)(F)F)c21 [Example 11, 1-ethyl-6-fluoro-8-trifluoromethyl-1,4-dihydro-4-oxo-7-[4-(2-pyridyl)piperazin-1-yl]quinoline-3-carboxylic acid] | – | – | –
0.0096 µg/mL (≈ 0.0205 µM) | Cn1cc(C(=O)O)c(=O)c2cc(F)c(N3CCN(c4ccc(F)cc4)CC3)c(C(F)(F)F)c21 [Example 22, 6-fluoro-8-trifluoromethyl-1,4-dihydro-4-oxo-1-methyl-7-[4-(4-fluorophenyl)piperazin-1-yl]quinoline-3-carboxylic acid] | – | – | –
0.011 µg/mL (≈ 0.0241 µM) | Cn1cc(C(=O)O)c(=O)c2cc(F)c(N3CCN(c4nccs4)CC3)c(C(F)(F)F)c21 [Example 23, 6-fluoro-8-trifluoromethyl-1,4-dihydro-4-oxo-1-methyl-7-[4-(2-thiazolyl)piperazin-1-yl]quinoline-3-carboxylic acid] | – | – | –
– | CCn1cc(C(=O)O)c(=O)c2cc(F)c(N3CCNC(C)C3)c(F)c21 (centres unmarked) [Lomefloxacin] | – | anti-HIV activities | no anti-HIV activity was also recognized
– | CCn1cc(C(=O)O)c(=O)c2cc(F)c(N3CCNCC3)cc21 [Norfloxacin] | – | anti-HIV activities | no anti-HIV activity was also recognized
– | NC1CCN(c2nc3c(cc2F)c(=O)c(C(=O)O)cn3-c2ccc(F)cc2F)C1 (centres unmarked) [Tosufloxacin] | – | anti-HIV activities | no anti-HIV activity was also recognized
